According to patent US20170327455A1, “Omefibrates for Treating Dyslipidemia and Cardiovascular Disease” (Jiva Pharma, Inc., priority 2014, published 2017):
“Also recorded” adds a separate entry of the source.

Tests used:
[1] = target: T1, PPARα (Homo sapiens, UniProt Q07869); test: PPARα agonist assay: GAL4-PPAR ligand-binding domain luciferase reporter in live cells; format: cell-based; conditions: FIG. 1; for activation of PPARα transcriptional activity (normalized luciferase activity): GAL4-regulated luciferase reporter, live cells
T1 construct: expressed in transfected cells
T1 sequence (Q07869 239-466 limits assumed): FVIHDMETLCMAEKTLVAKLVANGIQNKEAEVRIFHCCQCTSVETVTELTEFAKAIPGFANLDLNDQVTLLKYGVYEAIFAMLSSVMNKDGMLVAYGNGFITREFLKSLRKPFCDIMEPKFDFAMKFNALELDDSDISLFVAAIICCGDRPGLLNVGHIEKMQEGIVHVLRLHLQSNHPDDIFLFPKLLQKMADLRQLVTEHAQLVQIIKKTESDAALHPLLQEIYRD
Description: The activity of JIVA-0018, JIVA-0019 and JIVA-0020 was determined in a PPARα-dependent transcription assay. This assay was carried out in live cells treated with these above compounds, and provides a direct measurement of a compound's ability to activate PPARα. This PPARα activity assay is a standard nuclear receptor ligand activity assay that utilizes the ligand-binding domain of the PPAR receptor fused to a heterologous GAL4 DNA binding domain. The transcriptional read-out is from a GAL4-regulated luciferase reporter. In this assay, compounds that activate the receptor cause an increase in luciferase activity measured in a luminometer.

[2] = target: T2, PPARδ (Homo sapiens, UniProt Q03181); test: PPARδ Agonist Assay (luciferase reporter); format: cell-based; conditions: FIG. 2
T2 construct: expressed in transfected cells
T2 sequence (Q03181 211-439 limits assumed): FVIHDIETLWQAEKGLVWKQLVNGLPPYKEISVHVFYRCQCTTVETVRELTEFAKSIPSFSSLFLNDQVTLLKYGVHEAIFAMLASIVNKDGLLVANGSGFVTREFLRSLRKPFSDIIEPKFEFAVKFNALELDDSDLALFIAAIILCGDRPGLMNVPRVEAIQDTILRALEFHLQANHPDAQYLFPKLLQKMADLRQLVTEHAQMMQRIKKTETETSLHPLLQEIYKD

activity on PPARδ (normalized luciferase activity) [2] | Compound | activation of PPARα transcriptional activity (normalized luciferase activity) [1] | EC50 ([1]; estimated from the data, read-out: EC50 for activation of PPARα) [µM]
at the base line | CC/C=C\C/C=C\C/C=C\C/C=C\C/C=C\CCCCC(C)(C)C(=O)O [JIVA-0018, EPA Fibrate or EPA-Fibric Acid] | neither the EPA-fibrate, JIVA-0018 nor the DHA-fibrate, JIVA-0020 stimulated PPARα activity; also recorded: at the base line | 
at the base line | CC/C=C\C/C=C\C/C=C\CCCCCCCCC(C)(C)C(=O)O [JIVA-0019, ALA Fibrate] | strongly activated PPARα; also recorded: potent and selective activator of PPARα | 
 | DHA Fibrate [JIVA-0020] | neither the EPA-fibrate, JIVA-0018 nor the DHA-fibrate, JIVA-0020 stimulated PPARα activity | > 20
